In assay [1] the test system is PBMC of HLA-A*02 positive CLL patients. Put plainly: IFN-γ ELISPOT, CLL patients. The settings on record: for samples with significant (>20) CTL responses against peptide: CLL patient samples, IFN-γ ELISPOT; for # of positively stained spots (IFN-γ ELISPOT): CLL patients, HLA-A*02 positive, one value per patient (table line), T cells cultured seven days with IL-2.
Description: (§2) To determine the frequency of OFA/iLR peptide-specific T cells in patients, ELISPOT-assays were performed using the Interferon-γ-ELISPOT-Kit (Becton Dickinson, Heidelberg, Germany) according to manufacturer's instructions.
(§3) Prior to analysis, T cells from patients and healthy donors had been kept in culture for seven days in the presence of Interleukin-2 (IL microgram/10^6 PBMC/milliliter).
Assay [2] concerns peptide-pulsed 51Cr-labelled T2 cells. The assay is described as follows: Cold target inhibition assay. The assay is classed as cell-based, human. The text has this: (§1) CTL derived from healthy HLA-A*0201^+ individuals were generated using a protocol described elsewhere (Zeis M, Siegel S, Schmitz M et al. Induction of cytotoxic T lymphocytes against hematologic neoplasms by survivin RNA-transfected dendritic cells. J Immunol. 2003; 170, 5391-5397.). For the induction of autologous OFA/ILR, peptide-specific CTL obtained from patients with AML and CLL, CD8^+ T cells were separated from PBMC using immunomagnetic beads (MACS®, Miltenyi, Bergisch-Gladbach, Germany), cultured with autologous OFA/iLR peptide-pulsed fully matured DC and restimulated with autologous peptide-pulsed PBMC in the presence of IL-2 (1 ng/ml, CellConcepts, Weisskirch, Germany). After at least four weekly restimulations, CTL reactivity was determined in a conventional 4 h ^51Chromium release assay. Cold target inhibition assays and antibody blocking experiments were performed as previously described (Zeis M, Siegel S, Schmitz M et al. Induction of cytotoxic T lymphocytes against hematologic neoplasms by survivin RNA-transfected dendritic cells. J Immunol. 2003; 170, 5391-5397.).
A cold target inhibition assay was performed. To examine whether ILR1-specific T cells lyse ILR1 peptide-pulsed T2 cells specifically and in the context of HLA-A*02, cold target inhibition assays were performed as follows: ^51Cr-labelled T2 cells were loaded with peptide in a concentration of 10 microgram peptide/10^6 T2 cells/ml. A total of 2×10^5 unlabelled, T2 cells, which had equally been loaded with the same or a control peptide, were then added in a volume of 50 microliter AIMV to 10^4 peptide-pulsed, ^51Cr-labelled T2 cells. Effector T cells specific for ILR1 were added and a ^51Cr-release assay was performed as described above.
A cold target inhibition assay was performed as described under “T2+ILR1” above.

The test system of assay [3] is PBMC of HLA-A*02 positive healthy donors. The assay is described as follows: IFN-γ ELISPOT, healthy donors. Conditions: healthy donors, HLA-A*02 positive; one value per donor (table line); T cells cultured seven days with IL-2.
Description: as §2, §3
The target in a further assay is T1, HLA-A*0201 (Homo sapiens, UniProt P04439, /I218V/L300P/L318F/N151K/N90K/P208A/P217A/Q86G/Q94H/R138H/R169H/T345S).
T1 construct: using the TAP (transporter associated with antigen processing)-deficient T2 cell line; host or cells: T2 (human, TAP-deficient)
The assay is described as follows: T2 whole cell-binding assay (in vitro reconstitution assay, TAP-deficient T2 cell line). The settings on record: compared with the Flu nucleoprotein58-66.

Assay [4] concerns tumor cells from CLL patients. Put plainly: 51Chromium release assay, peptide-specific CTL on tumor cells from CLL patients. It counts as cell-based, human. Conditions: for A*02-positive CLL patients in whom the peptide is a tumor-associated antigen: summary of two experiments; for recognition of CLL cells from A*02-negative patients by peptide-specific T cells / recognition of CLL cells from A*02-positive patients by peptide-specific T cells: two experiments.
Description: as §1
T cells specific for HLA-A*02-restricted ILR1 were tested on tumor cells from CLL patients (5 patients; samples CLL-01, -02, -03, -05, -06). […] The experiment was repeated (FIG. 3A) with 8 more CLL patients, of whom 4/8 were A*02-positive. […] In summary: • 1. ILR1 is a tumor-associated antigen in 100% (7/7) of A*02-positive CLL patients tested. • 2. ILR1 is restricted by HLA-A*02. Target: T2
T cells specific for HLA-A*02-restricted ILR2 were tested on tumor cells from CLL patients (8 patients; samples CLL-01, -02, -03, -04, -05, -06, -07, -08). […] The experiment was repeated (FIG. 9B) with 5 more CLL patients, of whom 3/5 were A*02-positive. […] Conclusion-and-summary: • 1. ILR2 is a tumor associated antigen in 100% (7/7) of A*02-positive CLL patients tested. • 2. ILR2 is restricted by HLA-A*02. Target: T2

The subject of assay [5] is PBMC from healthy donors, CD34-positive progenitor cells, bone marrow cells. Put plainly: 51Chromium release assay, peptide-specific CTL on normal cells. Conditions: for recognition of bone marrow cells by peptide-specific T cells: A*02-positive donors (BM-01, -02); for recognition of CD34-positive bone-marrow-derived progenitor cells by peptide-specific T cells: A*02-positive donors (CD34-01, -02). The assay is classed as cell-based, human.
Description: as §1
T cells recognizing the ILR1-peptide were tested on K562 [human pro-erythroblastic leukemia cell-line, also known as chronic myelogenous leukemia (CML) cell line, which, due to extremely low levels of HLA, functions as a control for excluding NK cells as effector cells], IND (human B lymphoblastoid cell line), Karpas-422 (human B cell lymphoma), Balm-3 (human non-Burkitt B-lymphoma cell line), U266 (human multiple myeloma), REH (Human B cell precursor leukemia), MEC-1 (human chronic B cell leukemia). The same T cells were used to test autologous and allogeneic PBMC from healthy donors as controls. […] The response is not directed against allogeneic major or minor histocompatibility complex antigens. • 3. ILR1 peptide is recognized in an HLA-restricted fashion. • 4. The restriction is allele-specific (specific for A*02). Target: AML

The subject of assay [6] is CD8+ T cells of HLA-A*0201+ individuals. Put plainly: Generation of peptide-specific CTL lines with peptide-pulsed matured DC. It counts as cell-based, human. The settings on record: for generation of CTL lines from healthy HLA-A*0201+ donors: fully matured DC pulsed with the peptide; for generation of autologous peptide-specific CTL lines from patients: one patient with CLL and another with AML, tested against autologous and allogeneic HLA-A2-matched target cells.
Description: The identification of T-helper cell epitopes of tumor associated antigens remains an important task in anti-tumor immunotherapy. To identify T cell-binding epitopes deduced from the OFA-iLR protein, 14 peptides were synthesized (see below) that were predicted by the computer programs PAProC (http://www.uni-tuebingen.de/uni/kxi/) and SYFPEITHY (http://www.syfpeithi.de) to bind to the HLA-A*0201 molecule.
as §1

For assay [7], the system named is T cells of CLL patients (Binet A). Put plainly: IL-10-secreting peptide-specific T cells in CLL patients with early disease. It counts as cell-based, human. The settings on record: small series of CLL patients with early disease (Binet A); data not shown. The text has this: The inventors are currently involved with experiments to elucidate more precisely a possible relationship between the occurrence of anti-OFA/iLRP-specific T cells secreting IFN-γ or IL10 and the stage of disease in patients with CLL and multiple myeloma.

Assay [8] relates to PBMC of HLA-A*02 positive AML patients. The assay is described as follows: IFN-γ ELISPOT, AML patients. Conditions: for samples with significant (>20) CTL responses against peptide: AML patient samples, IFN-γ ELISPOT; for # of positively stained spots (IFN-γ ELISPOT): AML patients, HLA-A*02 positive, one value per patient (table line), T cells cultured seven days with IL-2.
Description: as §2, §3
The next assay deals with peptide-pulsed T2 cells. The assay is described as follows: Lysis of peptide-pulsed T2 target cells by peptide-specific CTL (peptide titration). The settings on record: for affinity of peptide-specific CTL to the peptide/MHC complex: peptide titration curves. It counts as cell-based, human.
[9] abbreviates: hot target ILR1-peptide-pulsed T2, effectors ILR1-specific CTL, 10 microgram peptide/10^6 T2 cells/ml.
[10] abbreviates: hot target ILR2-peptide-pulsed T2, effectors ILR2-specific CTL.

“And” between values parts separate entries of the source, which are not always exact repeats. Identical values can stand only once. “Also recorded” adds a separate entry of the source.

Results on two sequences are retold here after patent publication US7968097B2, “Identification of Hla-A2-presented T-cell epitopes derived from the oncofoetal antigen-immature laminin receptor protein and uses thereof” (Immatics Biotechnologies GmbH, priority 2005, dated 2011).

As to “ALCNTDSPL (listed as Homo sapiens) [ILR2]”, in assay [1], the “median numbers of positively stained CTL compared to responses to Influenza Matrix recall-antigen” value was 55%; the “samples with significant (>20) CTL responses against peptide” value (shortened to “samples with significant”) was 56%; the “# of positively stained spots (IFN-γ ELISPOT)” value (“# of positively stained spots” for short) is 4 per 105 PBMC and 45 per 105 PBMC and 65 per 105 PBMC and 128 per 105 PBMC and 67 per 105 PBMC and 23 per 105 PBMC and 27 per 105 PBMC and 78 per 105 PBMC and 56 per 105 PBMC and 0 per 105 PBMC (5×) and 2 per 105 PBMC and 57 per 105 PBMC. The “competition of cold targets loaded with the peptide for lysis” value (shortened to “competition of cold targets loaded”) in assay [2] (setting [9]) is “neither peptides irrelevant for ILR1-specific CTL (Survivin and ILR2), nor unloaded T2 cells, which display empty HLA-A*02 molecules on their cell surfaces, compete for lysis”. The “competition of cold targets loaded” value in assay [2] (setting [10]) is listed as “compete with the primary target cells”. In addition, in [3], the “# of positively stained spots” value was 0 per 105 PBMC (5×) and 3 per 105 PBMC (2×) and 2 per 105 PBMC and 4 per 105 PBMC (3×) and 5 per 105 PBMC (2×) and 6 per 105 PBMC and 7 per 105 PBMC. The “binding affinity to HLA-A*0201” value with HLA-A*0201 was “strong binding affinity”. For the same sequence, in assay [4], the “A*02-positive CLL patients in whom the peptide is a tumor-associated antigen” value was 100%; the “recognition of CLL cells from A*02-negative patients by peptide-specific T cells” value is “not recognized in any case (0/4) and 0/2 A*02-negative target cells were recognized”; the “recognition of CLL cells from A*02-positive patients by peptide-specific T cells” value is “recognized in all cases (4/4); also recorded: CLL cells from 3/3 A*02-positive patients were recognized”. Besides, in [5], the “lysis of HLA-A2-negative targets and normal hematopoietic cells by peptide-specific CTL lines” value is on record as “spared”; the “recognition of allogeneic and autologous PBMC from healthy donors by peptide-specific T cells” value was “not recognized”; the “recognition of bone marrow cells by peptide-specific T cells” value is on record as “not recognized”; the “recognition of CD34-positive bone-marrow-derived progenitor cells by peptide-specific T cells” value is reported as “not recognized”. In addition, in assay [6], the “generation of CTL lines from healthy HLA-A*0201+ donors” value is on record as “CTL lines could be generated” and the “generation of autologous peptide-specific CTL lines from patients” value is on record as “could be generated eliciting efficient cytotoxic activity”. Also, in assay [7], the “IL-10-secreting T cells specific for the peptide” value is “no relevant IL-10-secreting T cells”. For the same sequence, in [8], the “samples with significant” value is recorded as 47%; the “# of positively stained spots” value is 0 per 105 PBMC (4×) and 1 per 105 PBMC (2×) and 3 per 105 PBMC (2×) and 34 per 105 PBMC (3×) and 27 per 105 PBMC and 23 per 105 PBMC and 112 per 105 PBMC and 32 per 105 PBMC. In the assay with peptide-pulsed T2 cells (effectors: T cells specific for ILR2), the “recognition/lysis of T2 cells pulsed with the peptide” value is given as “lysed in a dose-dependent fashion”. Besides, the “affinity of peptide-specific CTL to the peptide/MHC complex” value with peptide-pulsed T2 cells was “high affinity”.

As to “LLAARAIVAI (listed as Homo sapiens) [ILR1]”, in [1], the “median numbers of positively stained CTL compared to responses to Influenza Matrix recall-antigen” value came to 76%; the “samples with significant” value was 60%; the “# of positively stained spots” value is 4 per 105 PBMC and 56 per 105 PBMC (2×) and 77 per 105 PBMC and 88 per 105 PBMC and 122 per 105 PBMC and 45 per 105 PBMC and 35 per 105 PBMC and 0 per 105 PBMC (4×) and 1 per 105 PBMC and 2 per 105 PBMC and 3 per 105 PBMC and 68 per 105 PBMC and 100 per 105 PBMC and 83 per 105 PBMC and 121 per 105 PBMC and 93 per 105 PBMC. The “competition of cold targets loaded” value in assay [2] (setting [9]) is reported as “compete with the primary target cells”. Also, the “competition of cold targets loaded” value in assay [2] (setting [10]) was “neither peptides irrelevant for ILR2-specific CTL (Survivin and ILR1), nor unloaded T2 cells, which display empty HLA-A*02 molecules on their cell surfaces, compete for lysis”. In addition, the “# of positively stained spots” value in assay [3] is 0 per 105 PBMC (5×) and 3 per 105 PBMC (2×) and 2 per 105 PBMC and 4 per 105 PBMC (3×) and 5 per 105 PBMC (2×) and 6 per 105 PBMC and 7 per 105 PBMC. In the assay with HLA-A*0201, the “binding affinity to HLA-A*0201” value is “strong binding affinity”. Further, in assay [4], the “A*02-positive CLL patients in whom the peptide is a tumor-associated antigen” value is 100%; the “recognition of CLL cells from A*02-negative patients by peptide-specific T cells” value was “recognized in any case (0/2) and 0/4 A*02-negative target cells were recognized”; the “recognition of CLL cells from A*02-positive patients by peptide-specific T cells” value is given as “recognized-in-all cases (3/3); also recorded: CLL cells from 4/4 A*02-positive patients were recognized”. In assay [5], the “lysis of HLA-A2-negative targets and normal hematopoietic cells by peptide-specific CTL lines” value is given as “spared”; the “recognition of allogeneic and autologous PBMC from healthy donors by peptide-specific T cells” value was “not recognized”; the “recognition of bone marrow cells by peptide-specific T cells” value was “not recognized”; the “recognition of CD34-positive bone-marrow-derived progenitor cells by peptide-specific T cells” value is reported as “not recognized”. For the same sequence, in assay [6], the “generation of CTL lines from healthy HLA-A*0201+ donors” value is listed as “CTL lines could be generated” and the “generation of autologous peptide-specific CTL lines from patients” value is on record as “could be generated eliciting efficient cytotoxic activity”. In addition, the “IL-10-secreting T cells specific for the peptide” value in assay [7] was “no relevant IL-10-secreting T cells”. For the same sequence, in assay [8], the “samples with significant” value was found to be 40%; the “# of positively stained spots” value is 2 per 105 PBMC (3×) and 3 per 105 PBMC (2×) and 1 per 105 PBMC (2×) and 4 per 105 PBMC and 5 per 105 PBMC and 56 per 105 PBMC and 54 per 105 PBMC and 34 per 105 PBMC (2×) and 33 per 105 PBMC and 25 per 105 PBMC. Besides, in the assay with peptide-pulsed T2 cells (effectors: T cells specific for ILR1), the “recognition/lysis of T2 cells pulsed with the peptide” value was “lysed in a dose-dependent fashion”. In addition, the “affinity of peptide-specific CTL to the peptide/MHC complex” value in the assay with peptide-pulsed T2 cells was “high affinity”.
